Patent USRE47689E1, “Compounds for treating spinal muscular atrophy” (PTC Therapeutics, Inc., priority 2011, dated 2019)

Legend:
Smn protein = Smn protein assay in cultured cells (SMN HTRF); assay type: cell-based, human; details: 48 hours; for EC1.5x (concentration giving 1.5-fold Smn protein increase): SMA Type 1 patient fibroblast cells (GM03813), 7-point concentration curve, SMN HTRF, concentration producing 1.5 times Smn protein vs DMSO vehicle control, read-out: EC1.5x for Smn protein expression; for maximum fold (Fold) increase of Smn protein: SMA patient fibroblast cells, 7-point concentration data, fold increase relative to vehicle control (SMN HTRF)
How it was run: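 Smn in SMA fibroblast lysates, measured by anti-SMN HTRF after 48 h compound exposure; EC1.5x from fold change over vehicle.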

[1] = test system: SMN2 minigene (full length SMN2 minigene mRNA containing SMN2 exon 7); assay: SMN2 minigene mRNA splicing RT-qPCR assay in cultured cells; assay type: cell-based, human; details: Homo sapiens, HEK293-H; HEK293H cells stably transfected with SMN2-A minigene; 24 hours; 7-point concentration curve; 1.5-fold relative to vehicle-treated cells; read-out: EC1.5x for production of full length SMN2 mRNA
How it was run: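 Full-length SMN2 minigene mRNA (exon 7 included), minigene-specific and not endogenous SMN, quantified by RT-qPCR multiplexed with GAPDH in stably transfected HEK293H cells after 24 h compound exposure at 37° C. Abundance from efficiency-corrected Ct, normalized to GAPDH and vehicle; EC1.5x reported as star bins.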

| melting point | Compound | EC1.5x (concentration giving 1.5-fold Smn protein increase) (Smn protein) | maximum fold (Fold) increase of Smn protein (Smn protein) | EC (1.5-fold) [1] |
| --- | --- | --- | --- | --- |
| 270 to 274 °C | Cc1cn2cc(-c3cc4c(F)cc(N5CCCNCC5)cc4oc3=O)nc2cn1 [Compound 550, 7-(1,4-diazepan-1-yl)-5-fluoro-3-(6-methylimidazo[1,2-a]pyrazin-2-yl)-2H-chromen-2-one] | < 300 nM | **** (fold increase between >1.5 and ≤1.65) | < 0.1 µM |
| 205 to 207 °C | CCN(CC)C1CCN(c2ccc3cc(-c4cn5cc(C)nc(C)c5n4)c(=O)oc3c2)CC1 [Compound 922, 7-[4-(diethylamino)piperidin-1-yl]-3-(6,8-dimethylimidazo[1,2-a]pyrazin-2-yl)-2H-chromen-2-one] | 300 to 1000 nM | *** (fold increase between >1.35 and ≤1.5) | < 0.1 µM |
| 231 to 233 °C | Cc1cn2cc(-c3cc4ccc(N5CCN6CCC[C@H]6C5)cc4oc3=O)ccc2n1 [Cpd 651, 7-[(8aS)-hexahydropyrrolo[1,2-a]pyrazin-2(1H)-yl]-3-(2-methylimidazo[1,2-a]pyridin-6-yl)-2H-chromen-2-one] | < 300 nM | *** (fold increase between >1.35 and ≤1.5) | < 0.1 µM |
| 165 to 168 °C | CCN(CCO)CCOc1ccc2cc(-c3cn4cc(C)nc(C)c4n3)c(=O)oc2c1 [Compound 938, 3-(6,8-dimethylimidazo[1,2-a]pyrazin-2-yl)-7-{2-[ethyl(2-hydroxyethyl)amino]ethoxy}-2H-chromen-2-one] | < 300 nM | ***** (fold increase >1.65) | < 0.1 µM |
| 190 to 192 °C | Cc1cn2cc(-c3cc4ccc(N5CCC(C)(N)CC5)cc4oc3=O)nc2c(C)n1 [Compound 920, 7-(4-amino-4-methylpiperidin-1-yl)-3-(6,8-dimethylimidazo[1,2-a]pyrazin-2-yl)-2H-chromen-2-one] | < 300 nM | ***** (fold increase >1.65) | < 0.1 µM |
| 229 to 232 °C | Cc1cc2cc(-c3cc4ccc(N5CCN(C)CC5)cc4oc3=O)oc2c(C)n1 [Compound 763, 3-(5,7-dimethylfuro[2,3-c]pyridin-2-yl)-7-(4-methylpiperazin-1-yl)-2H-chromen-2-one] | < 300 nM | **** (fold increase between >1.5 and ≤1.65) | < 0.1 µM |
| 187 to 190 °C | Cc1cn2cc(-c3cc4ccc(N5CCCNCC5)cc4oc3=O)cc2c(C)n1 [Compound 682, 7-(1,4-diazepan-1-yl)-3-(1,3-dimethylpyrrolo[1,2-a]pyrazin-7-yl)-2H-chromen-2-one] | 1000 to 3000 nM | *** (fold increase between >1.35 and ≤1.5) | < 0.1 µM |
| 160 to 164 °C | Cc1cn2cc(-c3cc4ccc(N5CCN(CCO)CC5)cc4oc3=O)cc2c(C)n1 [Compound 685, 3-(1,3-dimethylpyrrolo[1,2-a]pyrazin-7-yl)-7-[4-(2-hydroxyethyl)piperazin-1-yl]-2H-chromen-2-one] | < 300 nM | **** (fold increase between >1.5 and ≤1.65) | < 0.1 µM |
| 202 to 207 °C | Cc1cn2cc(-c3cc4ccc(OCCNC(C)C)cc4oc3=O)nc2c(C)n1 [Compound 877, 3-(6,8-dimethylimidazo[1,2-a]pyrazin-2-yl)-7-[2-(propan-2-ylamino)ethoxy]-2H-chromen-2-one] | 300 to 1000 nM | *** (fold increase between >1.35 and ≤1.5) | < 0.1 µM |
| 284 to 286 °C | Cc1cn2cc(-c3cc4ccc(N5CC(N6CCCCC6)C5)cc4oc3=O)nc2c(C)n1 [Compound 951, 3-(6,8-dimethylimidazo[1,2-a]pyrazin-2-yl)-7-[3-(piperidin-1-yl)azetidin-1-yl]-2H-chromen-2-one] | 1000 to 3000 nM | **** (fold increase between >1.5 and ≤1.65) | < 0.1 µM |

Second part, the compound before the results:

| Compound | melting point | EC1.5x (concentration giving 1.5-fold Smn protein increase) (Smn protein) | maximum fold (Fold) increase of Smn protein (Smn protein) | EC (1.5-fold) [1] |
| --- | --- | --- | --- | --- |
| Cc1cn2cc(-c3cc4ccc(N5CCN(C)CC5)cc4oc3=O)nc2s1 [Compound 97, 3-(2-methylimidazo[2,1-b][1,3]thiazol-6-yl)-7-(4-methylpiperazin-1-yl)-2H-chromen-2-one] | > 300 °C | 3000 to 10000 nM | *** (fold increase between >1.35 and ≤1.5) | 1 to 3 µM |
| CN1CCN(c2cc(F)c3cc(-c4cn5ccsc5n4)c(=O)oc3c2)CC1 [Compound 372, 5-fluoro-3-(imidazo[2,1-b][1,3]thiazol-6-yl)-7-(4-methylpiperazin-1-yl)-2H-chromen-2-one] | 268 to 271 °C |  | ** (fold increase between >1.2 and ≤1.35) | 0.1 to 0.3 µM |
| CNCc1ccc2cc(-c3nc4ccccc4s3)c(=O)oc2c1 [Compound 78, 3-(1,3-benzothiazol-2-yl)-7-[(methylamino)methyl]-2H-chromen-2-one] | 156 to 160 °C |  | *** (fold increase between >1.35 and ≤1.5) | 0.3 to 1 µM |
| C[C@H]1CN(c2ccc3cc(-c4ccc5c(c4)OCCO5)c(=O)oc3c2)CCN1 [Compound 513, 3-(2,3-dihydro-1,4-benzodioxin-6-yl)-7-[(3S)-3-methylpiperazin-1-yl]-2H-chromen-2-one] | 196 to 198 °C |  | * (maximum fold increase of ≤1.2) | 1 to 3 µM |
| Cc1ccn2cc(-c3cc4ccc(NCCCN(C)C)cc4oc3=O)nc2c1 [Compound 475, 7-{[3-(dimethylamino)propyl]amino}-3-(7-methylimidazo[1,2-a]pyridin-2-yl)-2H-chromen-2-one] | 165 to 170 °C |  | * (maximum fold increase of ≤1.2) | 3 to 30 µM |
| C[C@@H]1CN[C@@H](C)CN1c1ccc2cc(-c3cn4cc(Cl)ccc4n3)c(=O)oc2c1 [Compound 93, 3-(6-chloroimidazo[1,2-a]pyridin-2-yl)-7-[(2R,5S)-2,5-dimethylpiperazin-1-yl]-2H-chromen-2-one] | 245 to 247 °C |  | ** (fold increase between >1.2 and ≤1.35) | 1 to 3 µM |
| C[C@@H]1CN(c2ccc3cc(-c4ccc5c(c4)OCO5)c(=O)oc3c2)C[C@H](C)N1 [Compound 487, 3-(1,3-benzodioxol-5-yl)-7-[(3R,5S)-3,5-dimethylpiperazin-1-yl]-2H-chromen-2-one] | 123 to 125 °C |  | * (maximum fold increase of ≤1.2) | 3 to 30 µM |
| COc1ccn2cc(-c3cc4ccc(N5CCN[C@@H](C)C5)cc4oc3=O)nc2c1 [Compound 434, 3-(7-methoxyimidazo[1,2-a]pyridin-2-yl)-7-[(3S)-3-methylpiperazin-1-yl]-2H-chromen-2-one] | 250 to 256 °C |  | ** (fold increase between >1.2 and ≤1.35) | 1 to 3 µM |
| C[C@@H]1CN(c2ccc3cc(-c4nc5ccccc5o4)c(=O)oc3c2)C[C@H](C)N1 [Compound 23, 3-(1,3-benzoxazol-2-yl)-7-[(3R,5S)-3,5-dimethylpiperazin-1-yl]-2H-chromen-2-one] | 230 to 232 °C |  | * (maximum fold increase of ≤1.2) | 1 to 3 µM |
| C[C@@H]1CN(c2ccc3cc(-c4cn5ccc(Cl)cc5n4)c(=O)oc3c2)C[C@H](C)N1 [Compound 123, 3-(7-chloroimidazo[1,2-a]pyridin-2-yl)-7-[(3R,5S)-3,5-dimethylpiperazin-1-yl]-2H-chromen-2-one] | 223 to 231 °C | 300 to 1000 nM | *** (fold increase between >1.35 and ≤1.5) | 1 to 3 µM |
| COc1ccc(-c2cc3ccc(N4C[C@@H](C)N[C@@H](C)C4)cc3oc2=O)cc1C [Compound 543, 7-[(3R,5S)-3,5-dimethylpiperazin-1-yl]-3-(4-methoxy-3-methylphenyl)-2H-chromen-2-one] | 111 to 113 °C |  | * (maximum fold increase of ≤1.2) | 1 to 3 µM |
| CN1CCCN(c2ccc3cc(-c4cc5ccccn5n4)c(=O)oc3c2)CC1 [Compound 193, 7-(4-methyl-1,4-diazepan-1-yl)-3-(pyrazolo[1,5-a]pyridin-2-yl)-2H-chromen-2-one] | 159 to 163 °C | 3000 to 10000 nM | ** (fold increase between >1.2 and ≤1.35) | 0.1 to 0.3 µM |
| C[C@H]1CN(c2ccc3cc(-c4cn5cccc(Cl)c5n4)c(=O)oc3c2)CCN1 [Compound 184, 3-(8-chloroimidazo[1,2-a]pyridin-2-yl)-7-[(3S)-3-methylpiperazin-1-yl]-2H-chromen-2-one] | 215 to 217 °C |  | *** (fold increase between >1.35 and ≤1.5) | 0.3 to 1 µM |
